Data from patent US20140206635A1, “METAL-SALEN COMPLEX COMPOUND, LOCAL ANESTHETIC AND ANTINEOPLASTIC DRUG” (IHI CORPORATION, priority 2011, published 2014).

Tests used:
[1] = Temperature rise under near infrared radiation; format: physicochemical; settings: 100 mmol in agarose; near infrared 600 nm to 1600 nm, 10 W
Procedure: Next, a diatomic Fe salen complex compound (CAS#14167-12-5; produced by Tokyo Chemical Industry Co., Ltd.) was dissolved in agarose to produce a 100 mmol solution, which was put in a test tube, thereby preparing a sample. A sample of pure water put in a test tube was also prepared as a comparison. Then, these samples were respectively exposed to medical near infrared radiation (wavelengths: 600 nm to 1600 nm) by TOKYO IKEN CO., LTD. by using Super Lizer PX Type I (output: 10 W).

[2] = Magnetic field-magnetization curve (MPMS7); format: physicochemical; settings: magnetic field less than 10000 Oe (1 T); 37 degrees Celsius
Description: However, when the magnetic field exceeds 10000 Oe (1 T), the Co salen complex compound or the Mn salen complex compound has large magnetization and is most suited for magnetic induction drug delivery systems which use superconducting magnets.

[3] = Magnetic guidance of i.v. drug to right kidney, SNR by MRI; format: in vivo; settings: mouse, intravenous; about 0.3 T at right kidney; after 10 minutes; vs left kidney and control
Description: Next, an guidance example using a guidance system will be described. […] The metal plate 236, especially an iron plate, is placed between the pair of magnets 230 and 232 so that a magnetic field of locally uniform and strong strength can be created. An electrical magnet can be used instead of a magnet to modify the magnetic force generated in this guidance system. The magnetism-generating means can be moved to a target position of the individual on a table to allow the pair of magnetism-generating means to move in the X, Y, and Z directions. The tissue of an individual can be placed in the region of the magnetic field to concentrate the drug in the tissue.
More specifically, for example, the aforementioned Fe salen complex compound (drug concentration: 5 mg/mL (15 mM)) was injected intravenously into a mouse weighing about 30 g, a laparotomy was performed, and the mouse was placed on the iron plate 236 to locate its right kidney between the pair of magnets 230 and 232. […]
Together with the left kidney and a kidney to which no field was applied (control), a magnetic field was applied to the right kidney of the mouse; and after 10 minutes the SNR was measured by MRI in T1 mode and T2 mode.

Clone M3 melanoma cells = assay: Melanoma growth in mouse tail with local magnetic field; format: in vivo; settings: for melanoma extension (area of melanoma pigmentation): 12 days after initial injection, saline group 100%; for histological examination, tumor expansion of melanoma: HE, anti-Ki-67, anti-Cyclyn D1 staining
Procedure: Melanoma was established in mouse tails in vivo by local grafting of cultured melanoma cells (Clone M3 melanoma cells). Incidentally, FIG. 11(1) is a photograph showing the effects of a saline group (saline) into which the saline water was injected instead of the Fe salen complex compound; FIG. 11(2) is a photograph showing the effects of a group (SC) into which the Fe salen complex compound was injected without applying the magnetic field; and FIG. 11(3) is a photograph showing the effect of a group (SC+Mag) into which the Fe salen complex compound was injected while applying the magnetic field (n=7-10).
The Fe salen complex compound (50 mg/kg) was administered intravenously via tail vein, followed by local application of a magnetic field by the use of a commercially available bar magnet (630 mT, a cylindrical neodymium magnet, 150 mm long and 20 mm in diameter). Application of a bar magnet was performed with 3 hour gentle contact with the site of melanoma immediately after injection of the Fe salen complex compound for 10-14 days.
Application of the bar magnet was performed in such a way so that the magnetic field strength became maximal over the area of expected melanoma extension, which was approximately […] or shorter in a mouse tail for a growth period of 2 weeks. Twelve days after the initial injection of the Fe salen complex compound, the extension of melanoma was evaluated by assessing the area of melanoma pigmentation.
A histological examination was performed as shown in FIG. 13 by means of Hematoxylin-Eosin staining and immuno-histochemical staining with an anti-Ki-67 antibody and an anti-Cyclyn D1 antibody which are both tumor proliferation markers in tissue sections.

rat L6 cell = assay: Rat L6 cell culture with bar magnet, cell count proximal vs distal to the magnet; format: cell-based; settings: after 48 hours, bar magnet at flask
Procedure: Culture medium was sprinkled with metal-salen complex compound powder, which is obtained with respect to each of the Fe salen complex compound, the Mn salen complex compound, the Cr salen complex compound, and the Co salen complex compound by the above-described method, in amounts allowing magnetic attraction to be visibly observed at a rat L6 cell confluence of 30%, and the state of the medium was photographed after 48 hours.
Then, after 48 hours, the bottom face of the rectangular flask was photographed from one end to the other, and the cell count was calculated. Incidentally, Referring to FIG. 8, a “position proximal to the magnet” means within a projection area of the magnet end surface at the bottom of the rectangular flask, and a “position distal to the magnet” means a region on the side opposite the magnet end surface at the bottom of the rectangular flask.
As a result, the magnetic drugs and the system equipped with magnetism-generating means according to the present invention can thus allow the drugs to become concentrated in target tissues and tissues of individuals.

[4] = Temperature rise of ointments under AC magnetic field; format: physicochemical; settings: AC field 258 A, 400 kHz, 51.74 mT; for temperature rise of ointment: 300 seconds
Procedure: The aforementioned Fe salen complex compound was mixed with Vaseline, which is an adjuster for ointments, as a base at concentrations of 100 mmol and 200 mmol, respectively, to produce ointments. Then, the relationship between time and a temperature rise was measured by applying an AC magnetic field to these ointments under conditions of 258 A, 400 kHz, and 51.74 mT.
Then, the compound expressed by the aforementioned Formula (I) was mixed with Kenalog, which is an ointment for stomatitis, as a base at concentrations of 100 mmol and 200 mmol, respectively, to produce ointments. Then, the relationship between time and a temperature rise was measured by applying an AC magnetic field to these ointments under conditions of 258 A, 400 kHz, and 51.74 mT.
Next, as comparisons, the relationship between time and a temperature rise was measured by applying an AC magnetic field to each of 200 mg Vaseline and 200 mg Kenalog under conditions of 258 A, 400 kHz, and 51.74 mT.

SMILES: Oc1ccccc1C=NCCN=Cc1ccccc1O.[Fe+2] [diatomic Fe salen complex compound]
- temperature of sample 300 seconds later [1]: approximately 53 degrees Celsius
- temperature of sample immediately after the measurement (0 second) [1]: 26 degrees Celsius

SMILES: [Fe+2].[O-]c1ccccc1C=NCCN=Cc1ccccc1[O-] [Fe salen complex compound]
- magnetization [2]: largest magnetization
- drug retention in right kidney (SNR by MRI, T1 and T2 mode) [3]: possible to make the drug stay in the right kidney
- melanoma extension (area of melanoma pigmentation) (Clone M3 melanoma cells; SC group: 50 mg/kg i.v., no magnetic field): 63.68±16.3%
- melanoma extension (area of melanoma pigmentation) (Clone M3 melanoma cells; SC+Mag group: 50 mg/kg i.v. plus bar magnet 630 mT, 3 hour): 9.05±3.42%
- histological examination, tumor expansion of melanoma (Clone M3 melanoma cells; SC, no magnetic field): tumor expansion of melanoma diminished
- histological examination, tumor expansion of melanoma (Clone M3 melanoma cells; with magnetic force field application): mostly disappeared
- number of cells at position proximal to the magnet vs position distal to the magnet (rat L6 cell): dramatically lower number of cells
- temperature of ointment immediately after the measurement (0 second) ([4]; Kenalog base, 100 mmol): 35 degrees Celsius
- temperature rise of ointment ([4]; Kenalog base, 200 mmol): approximately 5 degrees Celsius
- temperature of ointment immediately after the measurement (0 second) ([4]; Kenalog base, 200 mmol): 35 degrees Celsius
- temperature of ointment immediately after the measurement (0 second) ([4]; Vaseline base, 100 mmol): 35 degrees Celsius
- temperature rise of ointment ([4]; Vaseline base, 200 mmol): approximately 5 degrees Celsius
- temperature of ointment immediately after the measurement (0 second) ([4]; Vaseline base, 200 mmol): 35 degrees Celsius
